Here are results for four molecules from patent publication US8916604B2, “Compositions and methods for epigenetic modification of nucleic acid sequences” (Rutgers, The State University of New Jersey, priority 2011, dated 2014).

For series [1], the system named is first 5 CpGs in the promoter region of Nrf2 gene. The following applies: TRAMP C1 cells, other DNA de-methylating agents; cited from earlier work.
Series [2] relates to HepG2-C8 cells. In words: MTS cell viability assay. The series is classed as cell-based, human. As for the experimental part: The stably transfected single clone HepG2-ARE-C8 (HepG2-C8) cell line has been established previously in our laboratory using the […]-luciferase reporter gene. The cells were maintained in Dulbecco's modified Eagle medium supplemented with 10% fetal bovine serum (FBS), 1.17 g/l sodium bicarbonate, and 100 unit/ml penicillin, 100 μg/ml streptomycin at 37° C. in a humidified incubator with 5% CO2. […] MTS] (Promega, Madison, Wis.). […] The cells were then treated with MTS for 1 h at 37° C. Absorbance of the formazan product was read at 490 nm with a μQuant Biomolecular Spectrophotometer from Bio-Tek Instruments Inc. (Winooski, Vt.). Independent control studies were conducted using 1% and 10% FBS medium.

For series [3], the system named is NQO1. In words: qPCR mRNA expression in HepG2-C8 cells. The following applies: 6 h. It counts as cell-based, human. As for the experimental part: (§1) The cells were treated similarly to the NITS and ARE-luciferase assays described above using 10% FBS medium. The incubation of the compounds with the cells was terminated 6 h later. The mRNA expression was evaluated utilizing a quantitative real-time polymerase chain reaction (qPCR). An RNeasy kit from Qiagen was used for RNA extraction (Valencia, Calif.). The total RNA was reverse-transcribed to cDNA by TaqMan Reverse Transcription Reagents (Applied Biosystems Inc, Foster City, Calif.). SYBR Green (Applied Biosystems Inc, Foster City, Calif.) fluorescence was used to measure the product of qPCR. Glyceraldehyde 3-phosphate dehydrogenase (GAPDH) was used as the housekeeping gene, and the Applied Biosystems 7900HT Fast Real-Time PCR System (Applied Biosystems Inc, Foster City, Calif.) was used as described previously (Saw et al., Biochem Pharmacol 2010; 79: 421-430) to detect quantitatively the induction of mRNA of Nrf2, phase II DME GSTm2, NAD (P)H dehydrogenase, quinone 1 (NQO1), UGT family, polypeptide A1 (UGT1A1) and antioxidant enzymes HO-1, superoxide dismutase 1 (SOD1). The primer pairs were designed using the Primer Quest Oligo Design and Analysis Tool by Integrated DNA Technologies Inc. (Coralville, Iowa, USA) and the sequences are listed in Table 4. At least four wells of each treatment were performed and duplicate samples were carried out for each treatment.
In general terms: Quantitative PCR measures a nucleic acid by following its amplification.

The test system of series [4] is antioxidant response element (ARE). In words: ARE-luciferase reporter assay with combination index calculation. The series is classed as cell-based, human. On the procedure:
The stably transfected single clone HepG2-ARE-C8 (HepG2-C8) cell line has been established previously in our laboratory using the […]-luciferase reporter gene. The cells were maintained in Dulbecco's modified Eagle medium supplemented with 10% fetal bovine serum (FBS), 1.17 g/l sodium bicarbonate, and 100 unit/ml penicillin, 100 μg/ml streptomycin at 37° C. in a humidified incubator with 5% CO2. The HepG2-C8 cells were cultured in 12-well plates and each well contained 1 million cells in 1 ml of 10% FRS medium. The cells were treated with compounds for 24 h. The luciferase activity was determined using a luciferase kit from Promega (Madison, USA) according to the manufacturer's instructions. Briefly, after treatments for 24 h, the cells were washed twice with ice-cold phosphate buffered-saline (PBS, pH 7.4) and harvested in 1× reporter lysis buffer and […]. After centrifugation at 4° C., 12000 rpm for 5 min, a 10 μl aliquot of the supernatant was assayed for luciferase activity with a Sirius luminometer (Berthold Detection System GmbH, Pforzheim, Germany). The luciferase activity was normalized against protein concentration, determined by a BCA protein assay (Pierce, Rockford, USA), and expressed as the fold induction over the luciferase activity of control vehicle-treated cells. At least two to three independent studies were conducted in triplicates. To determine the synergistic effect between the combination of two different compounds, the combination index (CI) was calculated with the following formula: […] This approach is based on the Loewe additivity model and although the exact mechanism of interaction may be unknown, this model is one of the most commonly used reference models for evaluating potential drug-drug interactions Lee et al., J Biopharm Stat 2007; 17: 461-480).

The conditions of series [5]: oral; cited from earlier work.
The test system of series [6] is HO-1. In words: qPCR mRNA expression in HepG2-C8 cells. The series is classed as cell-based, human. The following applies: 25 μM, 6 h, vs 0.1% DMSO. On the procedure:
as §1

The test system of series [7] is Nrf2. In words: qPCR mRNA expression in HepG2-C8 cells. The series is classed as cell-based, human. The following applies: 25 μM, 6 h, vs 0.1% DMSO. On the procedure:
as §1

The mark [8] stands for this setting: Homo sapiens, HepG2C8, 1% FBS medium, read-out: cell viability inhibitory concentrations (IC50).

Where two headings read alike, the source gives them in different places.

Turning to `COc1cc(/C=C/C(=O)CC(=O)/C=C/c2ccc(O)c(OC)c2)ccc1O` [curcumin], the “CpG methylation of the first 5 CpGs of the promoter of Nrf2 gene” value in series [1] is recorded as “decreased CpG methylation”.

Regarding `S=C=NCCc1ccccc1` [PEITC, phenethyl isothiocyanate], in series [2] (setting [8]), the IC50 is about 20 µM. Besides, the NQO1 gene expression result in series [3] (1 μM) is reported as “greatly induced”.

As to `OCc1c[nH]c2ccccc12` [I3C, indole-3-carbinol], the “induction of ARE-luciferase” value in series [4] (doses lower than 25 μM, 10% FBS medium (data not shown)) is “no significant induction”. The IC50 is 135 µM in series [2] (1% FBS medium, read-out: cell viability inhibitory concentrations (IC50)) and 300 µM in series [2] (10% FBS medium (data not shown), read-out: cell viability IC50). Besides, in series [5], the tolerability entry was “well tolerated”. Also, the “HO-1 mRNA induction over control” value in series [6] is “did not show significant induction”. Also, in series [7], the “Nrf2 mRNA induction over control” value is on record as “did not show significant induction”.

Consider `C[S+]([O-])CCCCN=C=S` (stereo not drawn) [SFN, sulforaphane], for which the “time of peak induction of ARE-luciferase activity” value in series [4] (time course study, after treatment) is 18 h. Besides, the IC50 in series [2] (setting [8]) is about 20 µM. Further, the NQO1 gene expression result in series [3] (any concentration) is “not significantly induced”.
